# Source: patent US7608627B2, “6-azaindole compound” (Takeda Pharmaceutical Company Limited, priority 2005, dated 2009)
# Structures can show the parent of a compound that is named as a salt.
# Tested on: not given
# Experiment: not given
# Conditions: not given
row,Structure (SMILES),melting point
1,"NCCO/N=C(/c1ccc(Cl)cc1)c1cc2ccncc2[nH]1 (single isomer, unassigned) (as salt: trifluoroacetate) [Example 126, (4-Chlorophenyl)(1H-pyrrolo[2,3-c]pyridin-2-yl)methanone O-(2-aminoethyl)oxime bis(hydrogen trifluoroacetate)]",146 to 150 °C
2,"O=C(NCc1cccs1)c1cc2ccnc(Cl)c2[nH]1 [Example 8, 7-Chloro-N-(2-thienylmethyl)-1H-pyrrolo[2,3-c]pyridine-2-carboxamide]",179 to 181 °C
3,"O=C(O)CO/N=C(\c1ccccc1)c1cc2ccncc2[nH]1 [Example 66, [[[Phenyl(1H-pyrrolo[2,3-c]pyridin-2-yl)methylene]amino]oxy]acetic acid]",68 to 73 °C
4,"c1ccc(C(=NOC2CCCNC2)c2cc3ccncc3[nH]2)cc1 (single isomer, unassigned) (as salt: hydrochloride)",240 to 245 °C (dec.)
5,"CC(C)C(O)c1cc2ccncc2[nH]1 (centres unmarked) [Example 78, 2-Methyl-1-(1H-pyrrolo[2,3-c]pyridin-2-yl)-1-propanol]",140 to 144 °C
6,"CC(C)(C)OC(=O)CO/N=C(\c1ccccc1)c1cc2ccncc2[nH]1 [Example 58, tert-Butyl[[[phenyl(1H-pyrrolo[2,3-c]pyridin-2-yl)methylene]amino]oxy]acetate]",47 to 52 °C

# The next lines start with the values.
row,melting point,Structure (SMILES)
1,168 to 174 °C (dec.),Cl.NCCCO/N=C(\c1ccccc1)c1cc2ccncc2[nH]1
2,242 to 245 °C,CC(C)/C(=N\NC(=N)N)c1cc2ccncc2[nH]1 (as salt: hydrochloride)
3,260 to 275 °C (dec.),"O=C(c1cc2ccncc2[nH]1)N1CCCC1 [Example 33, 2-(1-Pyrrolidinylcarbonyl)-1H-pyrrolo[2,3-c]pyridine]"
4,201 to 204 °C,Cl.Clc1nccc2cc(CNCc3ccccc3)[nH]c12
5,177 to 183 °C,"O=C(NCc1ccccn1)c1cc2ccnc(Cl)c2[nH]1 [Example 4, 7-Chloro-N-(2-pyridinylmethyl)-1H-pyrrolo[2,3-c]pyridine-2-carboxamide]"
6,190 to 194 °C,"Cc1ccc(/C(=N/OCCN)c2cc3ccncc3[nH]2)cc1 (single isomer, unassigned) (as salt: trifluoroacetate) [Example 119, (4-Methylphenyl)(1H-pyrrolo[2,3-c]pyridin-2-yl)methanone O-(2-aminoethyl)oxime bis(hydrogen trifluoroacetate)]"
7,178 to 188 °C,"O=C(NC(c1ccccc1)c1cc2ccncc2[nH]1)c1cccnc1 (centres unmarked) [Example 43, N-[Phenyl(1H-pyrrolo[2,3-c]pyridin-2-yl)methyl]nicotinamide]"

# Target: T1, IKKβ (Homo sapiens, UniProt O14920)
# T1 construct: made in house; host or cells: Sf-21 insect cells, recombinant baculovirus BAC-IKKB (pFASTBAC1)
# T1 sequence (O14920 1-756): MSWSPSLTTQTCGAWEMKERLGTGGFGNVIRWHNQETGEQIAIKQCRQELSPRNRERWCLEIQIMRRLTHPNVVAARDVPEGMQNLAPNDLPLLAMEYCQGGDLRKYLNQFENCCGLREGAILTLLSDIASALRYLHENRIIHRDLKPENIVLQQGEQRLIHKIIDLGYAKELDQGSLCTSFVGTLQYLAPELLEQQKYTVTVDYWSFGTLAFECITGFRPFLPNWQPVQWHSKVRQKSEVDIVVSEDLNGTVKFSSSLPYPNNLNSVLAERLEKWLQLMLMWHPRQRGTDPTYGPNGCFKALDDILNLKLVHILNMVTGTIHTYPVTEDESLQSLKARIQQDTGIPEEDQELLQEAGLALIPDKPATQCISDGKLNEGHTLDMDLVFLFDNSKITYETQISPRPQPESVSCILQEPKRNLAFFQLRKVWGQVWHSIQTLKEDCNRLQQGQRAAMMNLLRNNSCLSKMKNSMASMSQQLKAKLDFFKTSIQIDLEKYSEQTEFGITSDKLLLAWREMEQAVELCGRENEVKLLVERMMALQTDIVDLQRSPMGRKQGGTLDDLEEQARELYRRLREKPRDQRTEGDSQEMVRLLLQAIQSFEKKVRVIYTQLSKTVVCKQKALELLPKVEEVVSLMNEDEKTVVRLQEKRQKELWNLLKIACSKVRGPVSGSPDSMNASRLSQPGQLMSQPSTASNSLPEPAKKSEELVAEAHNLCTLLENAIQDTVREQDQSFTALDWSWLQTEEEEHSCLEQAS
# Experiment: Determination of IKKβ inhibitory activity (32P uptake into IκBα substrate)
# Format: biochemical
# Conditions: active IKKβ 10 ng, IκBα substrate protein, [γ-32P]ATP, 30° C. for 60 min; 50% inhibition of 32P uptake by the acid insoluble fraction
# Method: To a reaction solution (37.5 μl, 25 mM HEPES (pH 7.5), 10 mM magnesium acetate) containing active IKKβ (10 ng) obtained in Reference Example 3A and 2.5 μg of IκBα substrate protein solution was added a test compound (2.5 μl) dissolved in DMSO, and the mixture was incubated at 30° C. for 5 min. To the obtained mixture was added 10 μl of ATP solution (2.5 μM ATP, 0.01 μCi [γ-^32P]ATP) and the mixture was allowed to react at 30° C. for 60 min. Then 20% TCA solution (50 μl) was added thereto to stop the reaction. The reaction solution was left standing at 4° C. for 20 min. and acid insoluble fraction was transferred to a GF/C filter (PACKARD JAPAN KK) using a cell harvester (PACKARD JAPAN KK) and washed with 250 mM phosphoric acid solution. The plate after washing was dried at 45° C. for 60 min., 40 μl of MicroSinti 0 (PACKARD JAPAN KK) was added and the radioactivity was determined using TopCount (PACKARD JAPAN KK). The concentration (IC50) of the test compound necessary for 50% inhibition of the amount of ^32P uptake by the acid insoluble fraction was calculated using PRISM 3.0 (GraphPad Software, Inc.).
row,IC50,Structure (SMILES)
1,1.7 µM,"c1ccc(C(=NOC2CCNC2)c2cc3ccncc3[nH]2)cc1 (centres unmarked) [Example 91, Phenyl (1H-pyrrolo[2,3-c]pyridin-2-yl)methanone O-pyrrolidin-3-yloxime dihydrochloride]"
